Data reported in patent US20070218121A1, “Compounds that inhibit caspase activity for treating glaucoma” (priority 1997, published 2007).

System: HEK-293-nNOS cells transfected with mICE-lacZ (caspase-1)
Assay: Inhibition of caspase-induced apoptosis by endogenous NO in HEK-293-nNOS cells transfected with mICE-lacZ (propidium iodide, apoptotic nuclei count)
Assay type: cell-based
Details: 6 μM 4-Br-A23187 for 48 h after caspase-1 transfection; raises Ca2+ to activate nNOS and produce NO; p≦0.007; FIG. 1
Experimental: HEK-293 cells [Bredt et al., Nature 351: 714-719 (199)] overexpressing nNOS were transiently transfected with mICE-lacZ (containing the caspase-1 construct [Miura et al., Cell 75: 653-660 (1993)] or control placZ using the calcium phosphate precipitation method. Following transfection, cells were incubated in absence (0 μM) or presence of 6 μM 4-Br-A23187 for 48 h. Cells were then permeabilized, fixed, and stained with propidium iodide. Apoptotic nuclei were counted in ≧12 fields and results expressed as a percentage of total nuclei. The results are shown in FIG. 1. Values are the mean ± SEM for n≧3 from at least two experiments.

## CNc1c(Br)cc2oc(C[C@H]3OC4(CC[C@H]3C)O[C@H]([C@H](C)C(=O)c3ccc[nH]3)[C@H](C)C[C@H]4C)nc2c1C(=O)O (stereo partly shown) [4-Br-A23187]
  apoptosis (apoptotic nuclei as percentage of total nuclei): highly significant decrease in apoptosis
